Where two headings read alike, the source gives them in different places. Blank lines part the entries; values can stand above or below the compound they belong to.
Experiments:
[1] = tested on: HL-60 cells; experiment: PMA-induced adherence (attachment) of HL-60 cells; format: cell-based, human; conditions: for Adherent cells (%): 72 h; for IC50: Homo sapiens
Experimental: Cells were centrifuged at 600 g for 3 min, and added at 1×10^5 cells per well in 12-well culture dishes. Medium, PMA, and long-chain bases (prepared as the 1:1 molar complex with fatty acid-free bovine serum albumin) at the indicated concentrations were added for a total volume of 2.0 ml. After the desired times, the cells in suspension were counted and checked for viability (trypan blue exclusion) with a hemacytometer. The attached cells were quantitated by measuring DNA content according to the method of West et al (Anal. Biochem., 147, 289-295, 1985) and by assaying for acid phosphatase according to the method of Schnyder (J. Exp. Med., 148, 434-445, 1978).

[2] = tested on: protein kinase C; experiment: Triton X-100 mixed micellar assay for protein kinase C activity; format: biochemical, rat; conditions: for inhibition of protein kinase C (specificity): mixed micellar assay
Experimental: Protein kinase C was partially purified from rat brain as described by Hanrun et al (J. Biol. Chem., 260, 10043, 1985), which is hereby incorporated by reference.
Protein kinase C was assayed with Triton X-100 mixed micelles as described by Hanrun et al, (ibid.), Sphingosine was dried down with the lipid cofactors.

[3] = tested on: human neutrophils; experiment: Oxygen consumption (oxidative burst) of human neutrophils; format: cell-based; conditions: for IC50: Homo sapiens, Neutrophil
Text: Human neutrophils were obtained by continuous flow leukapheresis from normal adults. Residual erythrocytes were removed by hypotonic lysis with a resulting purity of >95% neutrophils. Alternatively peripheral blood was obtained by phlebotomy and neutrophils were isolated by HESPAN (6% Hetastarch, 0.9% NaCl) sedimentaion of erythrocytes, centrifugation through lymphocyte separation medium (9.4% sodium diatrizoate, 6.2% Ficoll), and hypotonic lysis of residual erythrocytes. Isolated cells were resuspended in phosphate buffered saline (PBS)-glucose, containing 0.6 mM CaCl2, 2.6 mM KCl, 1.5 mM KH2 PO4, 0.5 mM MgCl2, 136 mM NaCl, 8 mM Na2 HPO4, 5.5 mM glucose.
Oxygen consumption was measured using a Clark-type electrode with YSI model 53 oxygen monitor. Assays were conducted at 37° C. with 6.5×10^6 cells per ml with a total volume of either 2.5 ml or 4 ml. Effectors were injected into the electrode chamber using a Hamilton syringe. Initial slopes after the addition of the stimuli were used for rate calculations. For activators with a lag prior to the onset of the oxidative burst, maximal rates following the lag were used.

[4] = tested on: human neutrophils; experiment: Superoxide production by neutrophils (cytochrome c reduction); format: cell-based; conditions: Neutrophil, approximately 5×10^5 cells/ml, all activators, read-out: concentration for 50% inhibition of superoxide production
Experimental: Superoxide production by cells was quantitated from superoxide-mediated reduction of cytochrome c, monitored as an increase in absorbance at 550 nm and an extinction coefficient at 21,000 M^-1 cm^-1. Measurements were carried out at 37° C. using approximately 5×10^5 neutrophils per ml, stirred continuously. The cells were allowed to equilibrate several minutes prior to the addition of effectors. Conditions for individual experiments are described in figure legends and tables. Controls utilizing added superoxide dismutase verified that the cytochrome c reduction was mediated by superoxide.

[5] = tested on: human neutrophils; experiment: Phagocytosis of opsonized latex particles by neutrophils; format: cell-based; conditions: 40 μM sphinganine, ± S.E.M.
Experimental: Latex particles were opsonized by incubating at 37° C. 1 ml of particles with 0.2 ml of human serum plus 1 ml Tris buffer, pH 8.5. […] The reaction was terminated by the addition of 0.4 ml of ice-cold buffer containing 1 mM EDTA. […] Cells are sedimented, while excess beads remain at the ficoll-saline interface. The number of latex beads internalized per cell was determined by microscopic examination.

[6] = tested on: human neutrophils; experiment: [32P]-phosphate incorporation into TCA-precipitable material of neutrophils; format: cell-based
Experimental: Neutrophils (1.4×10^8 cells) were preincubated in with 0.5 mCi Na2 H^32 PO4 in buffer containing […] NaCl, 5.56 mM glucose, 10 mM Hepes, and 0.33 mM CaCl2 for a total of 1 hr at 37° C. in a shaking waterbath. Excess unbound counts were removed by centrifugation and resuspension, repeated five times. The cells were then divided into 4 treatment groups (see RESULTS below) containing approximately 3.5×10^7 cells each. All groups were incubated at 37° C. in a shaking waterbath for the same total time. Some samples were incubated 10 min. with sphinganine (40 μM) prior to addition of 1 μM PMA (final concentration), with which they were incubated for an additional 15 min. The reaction was stopped by addition of an equal volume of boiling SDS dissociation buffer (9% SDS, 1% mercaptoethanol, 15% glycerol, 30 mM Tris, pH 7.8). The samples were run on a 12% SDS-polyacrylamide gel using the method of Rudolph and Krueger (Adv. Cyclic Nucleotide Res. 101, 107-133, 1979). The gels were dried using a Bio-Rad model 2400 Gel Slab Dryer. Autoradiography was performed on the dried gels using Kodak X-omat X-ray film and Dupont Cronex intensifying screens. The gels were exposed for 12 hrs at -70° C.
Alternatively, neutrophils were preincubated as described above using 0.1 mCi of ^32 P labeled phosphate. The cells were broken by 5 min. of sonication using an Ultramet III waterbath sonicator, and 5% (final concentration) trichloroacetic acid was added to each sample. […] The precipitate was filtered and washed extensively using an Amicon filtration system and counted using a Beckman LS7000 scintillation counter.

[7] = tested on: human neutrophils; experiment: Cytoplasmic calcium concentration (Quin2); format: cell-based; conditions: Sphinganine (30 μM) pretreatment
Experimental: Intracellular calcium was measured by the Quin2 method. Briefly, Quin2/acetoxymethylester (50 μM) was preincubated with 1×10^8cell/ml for 20 min. at 37°, prior to 10-fold dilution and continuation of incubation for an additional 40-60 minutes. Cells were reisolated by centrifugation to remove extracellular fluorophore, and fluorescence measurement and calibration were carried out as described by Tsien et al in J. Cell. Biol. 94, 325-334, 1982, using a Perkin-Elmer MPF-44B fluorescence spectrophotometer. Buffer consisted of 140 mM NaCl, 5 mM KCl, 1 mM Na2 PO4, 5.5 mM glucose, 0.5 mM MgSO4, 20 mM Hepes, and 1 mM CaCl2.

[8] = oxidative burst, PMA activation, read-out: Concentration required for 50% inhibition

IC50 ([1]; HL-60, 8 nM PMA, read-out: 50% inhibition of PMA-induced attachment): 3 µM
inhibition of protein kinase C (specificity) [2]: inhibitors
IC50 ([3]; activator PMA, read-out: half maximal inhibition of oxygen consumption): 6.7 µM
IC50 ([3]; activator dioctanoylglycerol, read-out: half maximal inhibition of oxygen consumption): 7.4 µM
IC50 ([3]; activator opsonized zymosan, read-out: half maximal inhibition of oxygen consumption): 5.6 µM
IC50 ([3]; approximately 7.5×10^6 cells/ml, read-out: concentration for 50% inhibition, oxygen consumption assay): 6 to 8 µM
IC50 [3, 8]: 7 µM
IC50 [4]: ~1 µM
SMILES: CCCCCCCCCCCCCCC[C@@H](O)[C@@H](N)CO (relative stereo) [Sphinganine, erythro-dihydrosphingosine]
% Adherence ([1]; 8 nM PMA + 1 μM sphinganine, 24 h): 26%
% Adherence ([1]; 8 nM PMA + 1 μM sphinganine, 24 h, listed as Sa): 25.5 ± 7.7%
Adherence ([1]; 8 nM PMA + 2.5 μM sphinganine): 17.6±6.4%
Adherence ([1]; 8 nM PMA + 5 μM sphinganine): 15.0±2.1%
number of adherent cells ([1]; 8 nM PMA plus 1 μM sphinganine, 24 h): 0.51 ×10^5
Adherent cells (%) ([1]; 8 nM PMA, 1 μM sphinganine): 85%
Adherent cells (%) ([1]; 8 nM PMA, 2.5 μM sphinganine): 74%
Adherent cells (%) ([1]; 8 nM PMA, 5 μM sphinganine): 70%
% Adherence ([1]; 1 μM sphinganine, no PMA, 24 h): 3.7 ± 0.7%
Adherent cells (%) ([1]; No PMA, 1 μM sphinganine): 9%
Adherent cells (%) ([1]; No PMA, 2.5 μM sphinganine): 11%
Adherent cells (%) ([1]; No PMA, 5 μM sphinganine): 6%
PMA-induced oxygen consumption after washing out sphinganine ([3]; 40 μM sphinganine 5-10 min, then washed twice with 50 μM fatty acid-free BSA): 3.7 nmols/min/10^6 cells
RATE of oxygen consumption, SPHINGANINE ([3]; 50 μM sphinganine 3 min before Arachidonate (83 μM)): 0.2 nmols O2 consumed/min/10^6 cells
RATE of oxygen consumption, SPHINGANINE ([3]; 50 μM sphinganine 3 min before Dioctanoyl Glycerol (100 μM)): 0.3 nmols O2 consumed/min/10^6 cells
RATE of oxygen consumption, SPHINGANINE ([3]; 50 μM sphinganine 3 min before FMLP (0.5 μM) + Cytochalasin B (5 μg/ml)): 0.3 nmols O2 consumed/min/10^6 cells
RATE of oxygen consumption, SPHINGANINE ([3]; 50 μM sphinganine 3 min before Opsonized zymosan (30 μg/ml)): 0.3 nmols O2 consumed/min/10^6 cells
RATE of oxygen consumption, SPHINGANINE ([3]; 50 μM sphinganine 3 min before Phorbol Myristate Acetate (1 μM)): 0.2 nmols O2 consumed/min/10^6 cells
activation of the oxidative burst by A23187 ([3]; preliminary studies): blocked
ingested latex beads per cell [5]: 7.2±0.8 beads/cell
[32P]-phosphate incorporation into TCA-precipitable material ([6]; PMA (1 μM) plus Sa (25 μM)): 2845 COUNTS PER MINUTE
[32P]-phosphate incorporation into TCA-precipitable material ([6]; Sa (25 μM)): 2506 COUNTS PER MINUTE
Calcium, Resting [7]: 0.20 ± 0.02 µM
Calcium, FMLP-Peak ([7]; 1 μM FMLP): 0.66 ± 0.14 µM

SMILES: CCCCCCCCCCCCC/C=C/[C@@H](O)[C@@H](N)CO [sphingosine]
IC50 ([1]; HL-60, read-out: 50% inhibition of PMA-induced attachment): 1 µM
Hill number of the PS dependence of protein kinase C activation ([2]; 2 mol % sphingosine): 6.9
Hill number of the PS dependence of protein kinase C activation ([2]; 4 mol % sphingosine): 8.8
type of inhibition with respect to diC18:1 ([2]; 6 mol % PS, 50 μM Ca2+, double reciprocal plots): competitive
IC50 ([2]; Triton X-100 mixed micelles, 6 mol % PS, 2 mol % diC18:1, read-out: 50% inhibition of protein kinase C activity): 100 µM
type of inhibition with respect to phorbol dibutyrate ([2]; double reciprocal plots): competitive inhibition
type of inhibition with respect to Ca2+ ([2]; fixed PS and diC18:1, 3 and 4 mol % sphingosine): appeared competitive
inhibition of protein kinase C (specificity) [2]: potent and reversible inhibitor
IC50 [3, 8]: 9 µM
